Assay results published in paper PMC3267002 (Bioorganic & medicinal chemistry, 2011).
Structures can show the parent of a compound that is named as a salt.

Experiments:
5HT1A receptor = molecular target: T1, 5HT1A receptor (Homo sapiens, UniProt P08908); experiment: NIMH-PDSP radioligand binding, 5HT1A; conditions: compound 15 as the template
T1 sequence (P08908 1-422): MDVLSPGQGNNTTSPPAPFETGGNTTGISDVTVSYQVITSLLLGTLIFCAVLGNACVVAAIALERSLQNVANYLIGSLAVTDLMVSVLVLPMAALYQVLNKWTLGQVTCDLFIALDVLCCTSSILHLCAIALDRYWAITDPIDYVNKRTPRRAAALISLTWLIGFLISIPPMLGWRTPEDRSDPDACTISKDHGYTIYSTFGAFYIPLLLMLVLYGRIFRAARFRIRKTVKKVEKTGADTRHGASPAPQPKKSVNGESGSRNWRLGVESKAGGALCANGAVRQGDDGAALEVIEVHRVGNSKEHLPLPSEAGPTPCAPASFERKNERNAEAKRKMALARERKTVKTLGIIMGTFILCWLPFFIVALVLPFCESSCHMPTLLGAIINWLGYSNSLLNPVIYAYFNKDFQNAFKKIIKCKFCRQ

D4 receptor = molecular target: T2, D4 receptor (Homo sapiens, UniProt P21917); experiment: NIMH-PDSP radioligand binding, D4; conditions: compared to the methylene analog (so in the source)
T2 sequence (P21917 1-419): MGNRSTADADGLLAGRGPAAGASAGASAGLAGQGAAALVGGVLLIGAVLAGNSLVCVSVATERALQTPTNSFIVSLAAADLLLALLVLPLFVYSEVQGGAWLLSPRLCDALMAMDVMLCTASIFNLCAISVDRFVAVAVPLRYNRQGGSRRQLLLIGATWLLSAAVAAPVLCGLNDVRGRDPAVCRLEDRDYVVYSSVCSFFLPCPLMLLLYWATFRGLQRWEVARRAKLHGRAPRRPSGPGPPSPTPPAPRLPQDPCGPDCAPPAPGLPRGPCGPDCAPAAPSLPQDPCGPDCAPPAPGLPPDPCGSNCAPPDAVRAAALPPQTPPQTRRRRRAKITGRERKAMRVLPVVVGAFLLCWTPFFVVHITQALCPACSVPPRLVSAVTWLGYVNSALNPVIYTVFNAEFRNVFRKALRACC

D2 receptor = D2 receptor (Homo sapiens, UniProt P14416); experiment: NIMH-PDSP radioligand binding, D2; conditions: compound 15 as the template
5HT2C receptor = molecular target: T3, 5HT2C receptor (Homo sapiens, UniProt P28335); experiment: NIMH-PDSP radioligand binding, 5HT2C
T3 sequence (P28335 33-458): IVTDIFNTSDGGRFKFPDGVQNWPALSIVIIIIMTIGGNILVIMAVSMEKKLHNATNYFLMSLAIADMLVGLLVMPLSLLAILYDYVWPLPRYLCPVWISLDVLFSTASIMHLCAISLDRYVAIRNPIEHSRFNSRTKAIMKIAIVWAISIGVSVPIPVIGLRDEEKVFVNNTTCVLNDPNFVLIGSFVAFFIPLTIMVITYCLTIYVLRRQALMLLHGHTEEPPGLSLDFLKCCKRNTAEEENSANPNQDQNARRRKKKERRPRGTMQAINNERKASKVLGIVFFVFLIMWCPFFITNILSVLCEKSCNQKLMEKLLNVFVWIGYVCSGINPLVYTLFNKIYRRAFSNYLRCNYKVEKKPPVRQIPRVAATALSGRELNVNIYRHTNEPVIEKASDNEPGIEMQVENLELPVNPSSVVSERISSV

Chain of D2 receptor (P14416 whole entry): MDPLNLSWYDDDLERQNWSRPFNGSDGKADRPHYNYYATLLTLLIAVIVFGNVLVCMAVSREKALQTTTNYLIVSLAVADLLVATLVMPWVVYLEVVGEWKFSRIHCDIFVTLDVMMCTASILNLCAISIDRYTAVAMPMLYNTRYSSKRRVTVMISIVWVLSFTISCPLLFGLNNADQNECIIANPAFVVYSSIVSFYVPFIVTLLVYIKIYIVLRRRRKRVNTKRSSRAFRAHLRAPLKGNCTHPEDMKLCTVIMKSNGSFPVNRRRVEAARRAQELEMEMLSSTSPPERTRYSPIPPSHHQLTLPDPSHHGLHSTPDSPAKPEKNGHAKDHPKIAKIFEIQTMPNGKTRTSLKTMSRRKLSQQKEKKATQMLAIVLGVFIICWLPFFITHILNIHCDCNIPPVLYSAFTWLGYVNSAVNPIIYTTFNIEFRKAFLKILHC

**Q.** With `Clc1ccc(N2CCN(CCCOc3ccccc3)CC2)cc1` [Compound 17, 1-(4-Chlorophenyl)-4-(3-phenoxypropyl)piperazine HCl] as the compound, how does the “binding increased by a factor, 5HT1A receptor” value (5HT1A receptor) read?
**A.** Its value is 3.

**Q.** `OC1(c2ccc(Cl)cc2)CCN(CCCSc2ccc(F)cc2)CC1` [Compound 6, 4-(4-chlorophenyl)-1-(3-((4-fluorophenyl)thio)propyl)piperidin-4-ol] was tested. Which “decrease in binding at the D4 receptor” value (D4 receptor) did it give?
**A.** The value was “over 24 fold”.

**Q.** With `Fc1ccc(OCCCN2CCN(c3ccccc3)CC2)cc1` [Compound 16, 1-(3-(4-Fluorophenoxy)propyl)-4-phenylpiperazine] as the compound, how does the “increase in binding at the D2 receptor” value (D2 receptor) read?
**A.** The value was “over 10 fold”.

**Q.** With `Fc1ccc(SCCCN2CCC(c3ccc(Cl)cc3)CC2)cc1` [Compound 8, 4-(4-Chlorophenyl)-1-(3-((4-fluorophenyl)thio)propyl)piperidine hydrochloride] as the compound, how does the Ki (5HT2C receptor) read?
**A.** Its Ki is greater than 10 µM.

**Q.** For `[O-][S+](CCCN1CCC(c2ccc(Cl)cc2)CC1)c1ccc(F)cc1` (centres unmarked) [Compound 10, 4-(4-Chlorophenyl)-1-(3-((4-fluorophenyl)sulfinyl)propyl)piperidine HCl], which Ki (5HT2C receptor) is on record?
**A.** The Ki was greater than 10 µM.

**Q.** Which Ki (5HT2C receptor) does the source give for `Fc1ccc(OCCCN2CCN(c3ncccn3)CC2)cc1` [Compound 22, 2-(4-(3-(4-Fluorophenoxy)propyl)piperazin-1-yl)pyrimidine] here?
**A.** Its Ki is greater than 10 µM.

**Q.** Which Ki (5HT2C receptor) does the source give for `Fc1ccc(OCCCN2CCC(c3ccc(Cl)cc3)CC2)cc1` [Compound 9, 4-(4-Chlorophenyl)-1-(3-(4-fluorophenoxy)propyl)piperidine] here?
**A.** Its Ki is greater than 10 µM.

**Q.** `OC1(c2ccc(Cl)cc2)CCN(CCCOc2ccc(F)cc2)CC1` [Compound 7, 4-(4-Chloro-phenyl)-1-[3-(4-fluoro-phenoxy)-propyl]-piperidin-4-ol] was tested. Which “increase in binding at the D4 receptor” value (D4 receptor) did it give?
**A.** Its value is “over 4 fold”.
